Assay results: US12059467B2, “Low-toxicity and high-efficiency orthoester mixture pharmaceutical adjuvant, preparation method thereof, and topical sustained release drug delivery formulation including same” (ANHUI UNIVERSITY, priority 2022, dated 2024)
Entries after “also recorded” stand apart in the source; their conditions may differ.

Experiments:
Hypertension model rats = assay: Antihypertensive effect in hypertension model rats; settings: 40 mg/kg based on an irbesartan content; irbesartan orally, E-1′-Irbe subcutaneous injection
Description: Hypertension model rats were treated with irbesartan and the prepared irbesartan injection (E-1′-Irbe) at a dose of 40 mg/kg based on an irbesartan content, where the irbesartan was administered orally and the irbesartan injection (E-1′-Irbe) was administered through subcutaneous injection. A drug concentration in blood and a blood pressure level were detected at a preset time point.

mice [1] = assay: Acute toxicity test (LD50, MTD); assay type: in vivo
Description: With OE-2 in the patent application 202111500943.7 as a reference formulation, the OE-1′ obtained in Example 1 was subjected to an acute toxicity test, and experimental steps were as follows:
OE-2 and 0E-1′ each were administered to different mice at a time through intragastric administration, subcutaneous injection, and intraperitoneal injection with a dose gradient from 1 mg/kg to 50,000 mg/kg; poisoning characteristics of mice within 24 h were observed, and a mortality rate was counted; and an accurate LD50 value was calculated according to the probability unit method and the karber's method, and finally experimental groups were compared in terms of acute toxicity.
Note: The larger the LD50 value in the experimental group, the smaller the acute toxicity.

mice [2] = assay: Respiratory system and blood oxygen saturation tests; assay type: in vivo; settings: subcutaneous, 15,000 mg/kg, measured daily in the following week
Description: Different formulations each were subcutaneously injected into different mice at a dose of 15,000 mg/kg, and a breathing rate and a blood oxygen saturation of mice in each group were measured daily by a small animal non-invasive pulse oximeter in the following week.

[3] = Alcohol metabolite biodistribution test; assay type: in vivo, mice; settings: subcutaneous, 15,000 mg/kg; urine, blood, heart, liver, spleen, lung, kidney; gas chromatograph
Description: Preparation of standard solutions: an appropriate amount of methanol or ethanol was accurately weighed and prepared with water into a 10.0 mg/mL standard solution as a stock solution, and the stock solution was further diluted into aqueous solutions with concentrations of 0.10 mg/mL, 0.20 mg/mL, 0.50 mg/mL, 0.80 mg/mL, 1.00 mg/mL, 2.00 mg/mL, and 3.00 mg/mL, respectively. Preparation of an internal standard solution: an appropriate amount of tert-butyl alcohol (TBA) was accurately weighed and prepared with water into a 5.0 mg/mL TBA stock solution, the TBA stock solution was diluted with water to obtain a 40.0 μg/mL TBA working solution, and the TBA working solution was refrigerated and stored in a closed manner.
Different formulations each were subcutaneously injected into different mice at a dose of 15,000 mg/kg, and then the urine, blood, heart, liver, spleen, lung, and kidney were collected from the mice at different time points. 0.10 mL of each of the standard solutions, urine, blood, and tissue extracts was taken and mixed with 0.50 mL of a 40.0 μg/mL TBA working solution, and a resulting mixture was tested by a gas chromatograph. A standard curve with a linear regression coefficient of 0.999 or higher was plotted with results of the standard solutions, and then a methanol or ethanol content in each sample was calculated. […]

[4] = system: red blood cell (RBC) suspension; assay: Hemolysis test; assay type: cell-based; settings: 3 mg/mL to 15 mg/mL, 37° C., 3 h; hemolysis rate lower than 5% means no hemolytic effect
Description: Preparation of test samples: negative control: 2.5 mL of a red blood cell (RBC) suspension+2.5 mL of a 0.9% sodium chloride injection; positive control: 2.5 mL of an RBC suspension+2.5 mL of distilled water; and experimental group: 2.5 mL of an RBC suspension+2.2 mL of a 0.9% sodium chloride injection+0.3 mL of a formulation to be tested (3 mg/mL to 15 mg/mL).
Each sample was incubated in a 37° C. thermostatic water bath for 3 h and then centrifuged (3,000 r/min, 5 min) to obtain a supernatant, the supernatant was allowed to stand at room temperature for 30 min, and the absorbance of the sample was determined at 540 nm by a microplate reader; and the influence of plasma contents was eliminated with the absorbance of the negative control group, and then a hemolysis rate (%) of the experimental group could be calculated according to the following formula: HL%=At/Apc×100%, where At represents an absorbance value of a test sample and APC represents an absorbance value of the positive control. When a hemolysis rate is lower than 5%, it means that the formulation of the experimental group has no hemolytic effect at a corresponding concentration.

mice [5] = assay: Chronic toxicity test; assay type: in vivo; settings: subcutaneous, 15,000 mg/kg, 6 months
Description: Different formulations each were subcutaneously injected into different mice at a dose of 15,000 mg/kg, and the continuous behavioral observation, routine blood test, biochemical index test, and organ weight measurement were conducted for 6 months.

mice [6] = assay: Cardiovascular system-associated safety evaluation; assay type: in vivo; settings: subcutaneous, 15,000 mg/kg, measured daily in the following week
Description: Different formulations each were subcutaneously injected into different mice at a dose of 15,000 mg/kg, and a blood pressure and a heart rate of mice in each group were measured daily by […] in the following week.

pain model rats = assay: Analgesic effect in pain model rats; assay type: in vivo; settings: subcutaneous, 200 mg/kg based on a mepivacaine content
Description: Mepivacaine and the prepared mepivacaine injection (E-A′-Mep) each were subcutaneously injected into different pain model rats at a dose of 200 mg/kg based on a mepivacaine content. A time required for a rat to have a normal response to deep pain and electric stimulation and a time required for a rat to return from a motor weakness state to a normal state were then recorded; and when half of rats returned to a normal state, the test was stopped.

mice [7] = assay: Antibody-producing effect (IgG) in mice; assay type: in vivo; settings: subcutaneous, 50 mg/kg based on an ovalbumin content on day 1 and day 15
Description: Ovalbumin and the prepared ovalbumin injection (E-C′-Ova) were subcutaneously injected into different mice at a dose of 50 mg/kg based on an ovalbumin content on day 1 and day 15, and an IgG concentration was detected.

With `CCCCC1=NC2(CCCC2)C(=O)N1Cc1ccc(-c2ccccc2-c2nnn[nH]2)cc1` [irbesartan] the blood pressure level (Hypertension model rats) was “can reduce a blood pressure; also recorded: rebounds rapidly” and the “drug concentration in blood” value (Hypertension model rats) was “decreases rapidly”.

With `CCOC1OCC(COCC2COC(OCC)O2)O1` (centres unmarked) [OE-1′, 4,4′-(Oxybis(Methylene))Bis(2-Ethoxy-1,3-Dioxolane)] the “tolerance dose of mice (MTD)” value (mice [1]; mouse, in vivo) was “higher than a tolerance dose of mice for OE-2”, the LD50 value (mice [1]; single administration, intragastric, subcutaneous, intraperitoneal, mortality within 24 h) was “significantly higher than an LD50 value of OE-2” and the blood oxygen saturation (mice [2]) was “at normal levels”. For the same molecule, the breathing rate (mice [2]) was “at normal levels”, the “methanol or ethanol content in each sample” value [3] was “a trace amount of ethanol is detected in each sample” and the “hemolytic effect (hemolysis rate)” value [4] was “does not lead to a hemolytic effect”. For the same molecule, the organ mass (mice [5]) was “significantly higher than an organ mass of mice in the OE-2 group” and the “cardiovascular function (blood pressure and heart rate)” value (mice [6]) was “at a normal level”.

In the case of `Cc1cccc(C)c1NC(=O)C1CCCCN1C` (centres unmarked) [Normal saline (NS) + mepivacaine, mepivacaine], the “Time required for half of rats to have a normal response, Deep pain” value (pain model rats) is reported as 60 min, the “Time required for half of rats to have a normal response, Electric stimulation” value (pain model rats) is reported as 60 min and the “Time required for half of rats to have a normal response, Motor weakness” value (pain model rats) is reported as 60 min.

B1: ovalbumin (protein, UniProt P01012 2-386, looked up)
Ovalbumin: GSIGAASMEFCFDVFKELKVHHANENIFYCPIAIMSALAMVYLGAKDSTRTQINKVVRFDKLPGFGDSIEAQCGTSVNVHSSLRDILNQITKPNDVYSFSLASRLYAEERYPILPEYLQCVKELYRGGLEPINFQTAADQARELINSWVESQTNGIIRNVLQPSSVDSQTAMVLVNAIVFKGLWEKAFKDEDTQAMPFRVTEQESKPVQMMYQIGLFRVASMASEKMKILELPFASGTMSMLVLLPDEVSGLEQLESIINFEKLTEWTSSNVMEERKIKVYLPRMKMEEKYNLTSVLMAMGITDVFSSSANLSGISSAESLKISQAVHAAHAEINEAGREVVGSAEAGVDAASVSEEFRADHPFLFCIKHIATNAVLFFGRCVSP
notes: ovalbumin alone, injected subcutaneously as comparator
In the case of B1, the IgG concentration (mice [7]) is reported as “decreases rapidly”.
